Data: patent publication US7258738B2, “Cementing compositions including salts” (Halliburton Energy Services, Inc., priority 2005, dated 2007)

Legend:
acartia tonsa = assay: Crustacean toxicity, ISO 14669; assay type: in vivo; settings: amount required to kill or incapacitate half the test population
Text: (§1) According to still other embodiments described herein, a disulfonate salt of 2,4-pentanedione is provided. According to one such embodiment, the salt comprises 2,4-pentanedione-1,5-sodium disulfonate. According to another such embodiment, a disulfonate salt of 2,4-pentanedione has an environmentally acceptable toxicity. As used herein, the term “environmentally acceptable toxicity” means that, when tested according to procedures that are the same as or equivalent to those set forth by the OSPAR Guidelines for Completing the Harmonised Offshore Chemical Notification Format (HOCNF) (References number: 2003-1) that were in effect on Dec. 31, 2004, the salt is determined to have a toxicity of greater than about 10,000 mg/L for an algae (skeletonema costatum), a crustacean (acartia tonsa), a fish (scopthalmus) and a sediment reworker (corophium volutator). […]
(§2) In this Example 3, the toxicity results for the skeletonema costatum were determined according to ISO (International Organization for Standardization) 10253, the protocol for which is known to those of ordinary skill in the art, and is also the protocol required under the above-referenced HOCNF Guidelines. The toxicity results for the acartia tonsa were determined according to ISO 14669, the protocol for which is known to those of ordinary skill in the art. […]

corophium volutator = assay: Sediment reworker toxicity, Part B of the OSPAR Protocols; assay type: in vivo; settings: amount required to kill or incapacitate half the test population
Text: as §1, §2

scopthalmus = assay: Fish toxicity, Part B of the OSPAR Protocols; assay type: in vivo; settings: amount required to kill or incapacitate half the test population
Text: as §1, §2

skeletonema costatum = assay: Algae toxicity, ISO 10253 (HOCNF); assay type: in vivo; settings: amount required to kill or incapacitate half the test population
Text: as §1, §2

[1] = Solubility of salt compared to free acid (methanol rinse); assay type: physicochemical
Text: The neutralized product was then rinsed several times with methanol to remove by-product acids, or any salts formed therefrom, while leaving the 2,4-pentanedione-1,5-sodium disulfonate primarily undissolved. […] The rinsed product was dried in a vacuum oven and filtered through a 300 mesh screen to afford a flowing pale orange/red powder. The resulting powder was 2,4-pentanedione-1,5-sodium disulfonate.

O=C(CC(=O)CS(=O)(=O)[O-])CS(=O)(=O)[O-].[Na+].[Na+] [2,4-pentanedione-1,5-sodium disulfonate]
toxicity (acartia tonsa): greater than 10,000 mg/L | toxicity (corophium volutator): greater than 10,000 mg/L | toxicity (scopthalmus): greater than 10,000 mg/L | toxicity (skeletonema costatum): greater than 10,000 mg/L | solubility compared to the 2,4-pentanedione-1,5-disulfonic free acid [1]: significantly less soluble
